Drawing on patent US10730863B2, “Bridged bicyclic compounds as farnesoid X receptor modulators” (BRISTOL-MYERS SQUIBB COMPANY, priority 2017, dated 2020), this text covers EC50 for 35 compounds.

For this assay, the target named is FXR (Homo sapiens (Human), UniProt Q96RI1). The experiment in a line: FXR EC50 (FXR agonist activity reported with each example). Format: cell-based.
Chain of FXR (Q96RI1 262-486): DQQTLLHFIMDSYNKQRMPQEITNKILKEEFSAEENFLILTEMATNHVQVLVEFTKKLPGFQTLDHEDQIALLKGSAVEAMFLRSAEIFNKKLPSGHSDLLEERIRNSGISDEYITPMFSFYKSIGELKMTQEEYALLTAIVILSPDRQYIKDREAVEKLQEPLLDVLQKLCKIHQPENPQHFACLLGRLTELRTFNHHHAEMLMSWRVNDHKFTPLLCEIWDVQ

Turning to `O=C(O)c1ccc2cc(C(O)C34CCC(OCc5c(-c6c(Cl)cccc6Cl)noc5C5CC5)(CC3)CC4)ccc2c1` (centres unmarked) [Example 126, 6-((4-((5-cyclopropyl-3-(2,6-dichlorophenyl)isoxazol-4-yl)methoxy)bicyclo[2.2.2]octan-1-yl)(hydroxy)methyl)-2-naphthoic acid], a half-maximal response (EC50) required 600 nM.
`O=C(O)c1cccc(-c2noc(C34CCC(OCc5c(-c6ccccc6C(F)(F)F)noc5C5CC5)(CC3)CC4)n2)c1` [Example 25]: it took 300 nM to reach a half-maximal effect (EC50). This EC50 lies about 2-fold lower than the previous one.
The same measure for `O=C(O)c1cccc(-c2noc(C34CCC(OCc5c(-c6c(Cl)cccc6Cl)noc5C5CC5)(CC3)CO4)n2)c1` [Example 193, 3-(5-(4-((5-cyclopropyl-3-(2,6-dichlorophenyl)isoxazol-4-yl)methoxy)-2-oxabicyclo[2.2.2]octan-1-yl)-1,2,4-oxadiazol-3-yl)benzoic acid]: 26 nM.
The same measure for `NC(=O)c1cc(C(F)(F)F)c2cc(OCC34CCC(OCc5c(-c6c(Cl)cncc6Cl)noc5C5CC5)(CC3)CC4)ccc2n1` [Example 291, 6-((4-((5-cyclopropyl-3-(3,5-dichloropyridin-4-yl)isoxazol-4-yl)methoxy)bicyclo[2.2.2]octan-1-yl)methoxy)-4-(trifluoromethyl)quinoline-2-carboxamide]: 230 nM; for `O=C(O)c1cnn(CC23CCC(OCc4c(-c5c(Cl)cccc5Cl)noc4C4CC4)(CC2)CC3)c1C(F)F` [Example 269, 1-((4-((5-cyclopropyl-3-(2,6-dichlorophenyl)isoxazol-4-yl)methoxy)bicyclo[2.2.2]octan-1-yl)methyl)-5-(difluoromethyl)-1H-pyrazole-4-carboxylic acid]: 700 nM.
The value for `O=C(O)c1cc(OC2CCC2)c2cc(OCC34CCC(OCc5c(-c6c(Cl)cncc6Cl)noc5C5CC5)(CC3)CC4)ccc2n1` [Example 344] was 17 nM; that for `O=C(O)c1cccc(/C=C/C23CCC(OCc4c(-c5ccccc5OC(F)(F)F)noc4C4CC4)(CC2)CC3)c1` [Example 40] was 100 nM; that for `CCOc1cc(OCC23CCC(OCc4c(-c5c(Cl)cncc5Cl)noc4C4CC4)(CC2)CC3)cnc1C(=O)O` [Example 294, 5-((4-((5-cyclopropyl-3-(3,5-dichloropyridin-4-yl)isoxazol-4-yl)methoxy)bicyclo[2.2.2]octan-1-yl)methoxy)-3-ethoxypicolinic acid] was 32 nM.
The compound `CCOc1cc(C(=O)O)nc2c(F)cc(OCC34CCC(OCc5c(-c6c(Cl)cncc6Cl)noc5C5CC5)(CC3)CC4)cc12` [Example 306, 6-((4-((5-cyclopropyl-3-(3,5-dichloropyridin-4-yl)isoxazol-4-yl)methoxy)bicyclo[2.2.2]octan-1-yl)methoxy)-4-ethoxy-8-fluoroquinoline-2-carboxylic acid] displayed an EC50 of 11 nM.
Turning to `O=C(O)c1cccc(/C=C/C23CCC(COCc4c(-c5c(Cl)cccc5Cl)noc4C4CC4)(CC2)CO3)c1` [Example 200], it took 220 nM to reach a half-maximal effect (EC50).
The value for `O=C(O)c1cc(F)c2nc(OCC34CCC(OCc5c(-c6ccccc6OC(F)(F)F)noc5C5CC5)(CC3)CC4)sc2c1` [Example 79] was 130 nM; that for `O=C(O)c1cccc(-c2noc(C34CCC(COCc5c(-c6ccccc6OC(F)(F)F)noc5C5CC5)(CC3)CC4)n2)c1` [Example 153] was 320 nM.
The value for `COc1ccc(C(=O)O)cc1-c1noc(C23CCC(OCc4c(-c5c(Cl)cncc5Cl)noc4C4CC4)(CC2)CC3)n1` [Example 459, 3-(5-(4-((5-cyclopropyl-3-(3,5-dichloropyridin-4-yl)isoxazol-4-yl)methoxy)bicyclo[2.2.2]octan-1-yl)-1,2,4-oxadiazol-3-yl)-4-methoxybenzoic acid] was 630 nM; that for `CS(=O)(=O)NC(=O)c1ccc(-c2noc(C34CCC(OCc5c(-c6c(Cl)cccc6Cl)noc5C5CC5)(CC3)CC4)n2)cc1` [Example 3, 4-(5-(4-((5-cyclopropyl-3-(2,6-dichlorophenyl)isoxazol-4-yl)methoxy)bicyclo[2.2.2]octan-1-yl)-1,2,4-oxadiazol-3-yl)-N-(methylsulfonyl)benzamide] was 890 nM; that for `Cc1ccc(C(=O)O)c2ccc(C34CCC(OCc5c(-c6c(Cl)cncc6Cl)noc5C5CC5)(CC3)CC4)nc12` [Example 389] was 6 nM.
The same measure for `O=C(O)c1cc(F)c2nc(C34CCC(OCc5c(-c6c(Cl)cncc6Cl)noc5C5CC5)(CC3)CC4)ccc2c1` [Example 369]: 41 nM.
Turning to `O=C(O)c1ccc(-c2noc(C34CCC(COCc5c(-c6c(Cl)cccc6Cl)noc5C5CC5)(CC3)CO4)n2)cc1` [Example 211], the EC50 was 980 nM. This EC50 is about 24-fold higher than that of the compound before.
The value for `O=C(O)c1cccc(-c2noc(C34CCC(OCc5c(-c6c(Cl)cccc6Cl)noc5C5CC5)(CC3)C4)n2)c1` [Example 221, 3-(5-((1r,4r)-4-((5-cyclopropyl-3-(2,6-dichlorophenyl)isoxazol-4-yl)methoxy)bicyclo[2.2.1]heptan-1-yl)-1,2,4-oxadiazol-3-yl)benzoic acid] was 300 nM.
The value for `O=C(O)c1ccc(O)c2nc(C34CCC(OCc5c(-c6c(Cl)cncc6Cl)noc5C5CC5)(CC3)CC4)ccc12` [Example 407] was 19 nM; that for `CN(Cc1ccccc1C(=O)O)C(=O)C12CCC(OCc3c(-c4c(Cl)cccc4Cl)noc3C3CC3)(CC1)CC2` [Example 144, 2-((4-((5-cyclopropyl-3-(2,6-dichlorophenyl)isoxazol-4-yl)methoxy)-N-methylbicyclo[2.2.2]octane-1-carboxamido)methyl)benzoic acid] was 160 nM; that for `O=C(O)c1ccc(-c2noc(C34CCC(OCc5c(-c6ccccc6OC(F)(F)F)noc5C5CC5)(CC3)CC4)n2)cc1` [Example 2, 4-(5-(4-((5-cyclopropyl-3-(2-(trifluoromethoxy)phenyl)isoxazol-4-yl)methoxy)bicyclo[2.2.2]octan-1-yl)-1,2,4-oxadiazol-3-yl)benzoic acid] was 170 nM.
As to `O=C(O)c1cc(OCC23CCC(OCc4c(-c5c(Cl)cccc5Cl)noc4C4CC4)(CC2)CC3)ccc1F` [Example 93, 5-((4-((5-cyclopropyl-3-(2,6-dichlorophenyl)isoxazol-4-yl)methoxy)bicyclo[2.2.2]octan-1-yl)methoxy)-2-fluorobenzoic acid], the EC50 turned out to be 32 nM. This EC50 is about 5.3-fold lower than that of the compound before.
The value for `O=C(O)c1cc(C23CCC(COCc4c(-c5c(Cl)cccc5Cl)noc4C4CC4)(CC2)CO3)ccc1F` [Example 202] was 390 nM.
The same measure for `O=C(O)c1cccc(-c2noc(C34CCC(OCc5c(-c6ccccc6C(F)(F)F)noc5C5CC5)(CC3)CC4)n2)n1` [Example 48]: 2100 nM; for `O=C(O)c1ccnc(C23CCC(OCc4c(-c5c(Cl)cccc5Cl)noc4C4CC4)(CC2)CC3)c1` [Example 137, 2-(4-((5-cyclopropyl-3-(2,6-dichlorophenyl)isoxazol-4-yl)methoxy)bicyclo[2.2.2]octan-1-yl)isonicotinic acid]: 420 nM; for `O=C(O)c1cccc2nc(C34CCC(OCc5c(-c6c(Cl)cncc6Cl)noc5C5CC5)(CC3)CC4)sc12` [Example 432, 2-(4-((5-cyclopropyl-3-(3,5-dichloropyridin-4-yl)isoxazol-4-yl)methoxy)bicyclo[2.2.2]octan-1-yl)benzo[d]thiazole-7-carboxylic acid]: 23 nM.
Compound `O=C(O)c1c(F)ccc(-c2noc(C34CCC(OCc5c(-c6c(Cl)cncc6Cl)noc5C5CC5)(CC3)CC4)n2)c1F` [Example 248, 3-(5-(4-((5-cyclopropyl-3-(3,5-dichloropyridin-4-yl)isoxazol-4-yl)methoxy)bicyclo[2.2.2]octan-1-yl)-1,2,4-oxadiazol-3-yl)-2,6-difluorobenzoic acid] showed an EC50 of 1100 nM.
The value for `O=C(O)c1cccc(C#CC23CCC(OCc4c(-c5c(Cl)cccc5Cl)noc4C4CC4)(CC2)CC3)c1` [Example 130, 3-((4-((5-cyclopropyl-3-(2,6-dichlorophenyl)isoxazol-4-yl)methoxy)bicyclo[2.2.2]octan-1-yl)ethynyl)benzoic acid] was 68 nM; that for `COc1cc(Cl)c2nc(C34CCC(OCc5c(-c6c(Cl)cncc6Cl)noc5C5CC5)(CC3)CC4)ccc2c1C(=O)O` [Example 426, 8-chloro-2-(4-((5-cyclopropyl-3-(3,5-dichloropyridin-4-yl)isoxazol-4-yl)methoxy)bicyclo[2.2.2]octan-1-yl)-6-methoxyquinoline-5-carboxy c acid] was 12 nM; that for `O=C(O)Cc1ccnc(OCC23CCC(OCc4c(-c5c(Cl)cccc5Cl)noc4C4CC4)(CC2)CC3)c1` [Example 104, 2-(2-((4-((5-cyclopropyl-3-(2,6-dichlorophenyl)isoxazol-4-yl)methoxy)bicyclo[2.2.2]octan-1-yl)methoxy)pyridin-4-yl)acetic acid] was 210 nM.
The same measure for `O=C(O)c1cc(C23CCC(COCc4c(-c5ccccc5OC(F)(F)F)noc4C4CC4)(CC2)CO3)ccc1F` [Example 207]: 570 nM.
The value for `O=C(O)c1cccc(-c2noc(C34CCC(COCc5c(-c6c(Cl)cccc6Cl)noc5C5CC5)(CC3)CC4)n2)c1` [Example 151, 3-(5-(4-(((5-cyclopropyl-3-(2,6-dichlorophenyl)isoxazol-4-yl)methoxy)methyl)bicyclo[2.2.2]octan-1-yl)-1,2,4-oxadiazol-3-yl)benzoic acid] was 150 nM.
In turn, `O=C(O)c1cc(F)c2nc(C34CCC(OCc5c(-c6ccccc6C(F)(F)F)noc5C5CC5)(CC3)CC4)sc2c1` [Example 51] came in with a concentration for a half-maximal effect (EC50) of 500 nM.
The value for `COc1cc(C(=O)O)nc2ccc(OCC34CCC(/C=C/c5c(-c6c(Cl)cncc6Cl)noc5C5CC5)(CC3)CC4)cc12` [Example 508, (E)-6-((4-(2-(5-cyclopropyl-3-(3,5-dichloropyridin-4-yl)isoxazol-4-yl)vinyl)bicyclo[2.2.2]octan-1-yl)methoxy)-4-methoxyquinoline-2-carboxylic acid] was 100 nM.
Consider `Clc1cccc(Cl)c1-c1noc(C2CC2)c1COC12CCC(c3nc(-c4nn[nH]n4)no3)(CC1)CC2` [Example 267, 5-(4-((5-cyclopropyl-3-(2,6-dichlorophenyl)isoxazol-4-yl)methoxy)bicyclo[2.2.2]octan-1-yl)-3-(2H-tetrazol-5-yl)-1,2,4-oxadiazole], for which the EC50 worked out at 4400 nM. This EC50 lies about 44-fold higher than the previous one.
